Data reported in PubChem BioAssay AID1645868 (Buhrlage Lab, Dana-Farber Cancer Institute and Novartis …, 2021).
Activity calls are given as the source filed them.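 The calls were made as follows: active = maximal percent inhibition of the deubiquitinase OTUD3 of at least 30% across the tested doses; inactive = the rest.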

biological target: OTU domain-containing protein 3 (Homo sapiens) (UniProt Q5T2D3); assay: Validation of screening hits, potency titration, in vitro enzymatic, OTU domain-containing protein 3 DUB inhibitors (AID 1645868); settings: purified OTUD3, ubiquitin-rhodamine cleavage fluorescence, 2 h
Sequence (Q5T2D3 whole entry, looked up, the tested form may be a part): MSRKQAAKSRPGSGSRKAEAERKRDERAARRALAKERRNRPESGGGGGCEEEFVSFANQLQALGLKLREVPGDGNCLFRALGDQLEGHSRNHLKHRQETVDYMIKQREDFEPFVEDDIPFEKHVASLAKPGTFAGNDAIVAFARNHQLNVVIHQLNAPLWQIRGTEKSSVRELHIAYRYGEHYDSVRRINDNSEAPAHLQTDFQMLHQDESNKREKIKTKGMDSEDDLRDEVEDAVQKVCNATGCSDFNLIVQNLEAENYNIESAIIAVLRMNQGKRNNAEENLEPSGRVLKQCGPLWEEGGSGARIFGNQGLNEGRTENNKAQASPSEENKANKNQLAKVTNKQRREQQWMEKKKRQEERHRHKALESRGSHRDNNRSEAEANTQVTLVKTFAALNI

Row | Compound | IC50
1 | O=C(COC(=O)c1n[nH]c2ccccc12)Nc1ccc(N2CCCCC2)cc1 | 32 µM
2 | O=C(Nc1cccn(Cc2c(Cl)cccc2Cl)c1=O)c1ccccc1[N+](=O)[O-] | > 50 µM (inactive)
3 | Cc1ccc2c(c1C)NC(=O)[C@]21[C@@H]2C(=O)N(c3cc(Cl)ccc3Cl)C(=O)[C@@H]2[C@@H]2CCCN21 | > 50 µM (inactive)
4 | CCCNc1cc(-c2ccccc2)nc2nc(-c3cccnc3)nn12 | > 50 µM (inactive)
5 | CCn1c(CN2CCCC(c3nc(-c4cccnc4)n[nH]3)C2)nc2ccccc21 (configuration not stated) | > 50 µM (inactive)
6 | Cc1ccc(Cn2cc(-c3noc(-c4ccc[nH]4)n3)nn2)cc1 | 19.8 µM
7 | Cc1cc(C)cc(-n2cnc3cc(C(=O)NCCC4=CCCCC4)ccc32)c1 | > 50 µM (inactive)
8 | Cc1cc(NC(=O)COc2ccc3oc4ccccc4c3c2)no1 | > 50 µM (inactive)
9 | COc1ccc(C2C(C(=O)C(C)(C)C)N3c4ccccc4C=CC3C23C(=O)c2ccccc2C3=O)c(OC)c1 (configuration not stated) | > 50 µM (inactive)
10 | COc1cccc2c1NC(=O)C21CCN(C(=O)Nc2cccc(C)c2)CC1 | 13.8 µM
11 | O=C(Nc1cccc2ccccc12)C1CCCN(S(=O)(=O)Cc2ccccc2)C1 (configuration not stated) | 40.5 µM
12 | CCN(c1ccc(NC(=O)CSc2nnc(-c3ccccc3)n2-c2ccc(OC)c(OC)c2)cc1)C(C)C | 19.7 µM
13 | O=C(Nc1ccccc1)c1nc(-c2cn(Cc3ccc(F)cc3)nn2)no1 | > 50 µM (inactive)
14 | Cc1ccc(OC(=O)c2cn(-c3ccccc3)nc2-c2cccnc2)cc1 | > 50 µM (inactive)
15 | O=C1NC(=O)/C(=C/c2ccc(OC(=O)c3ccc(Cl)cc3Cl)cc2)N1 | 11 µM
16 | Cc1c(C(=O)NCc2cccc(Br)c2)oc2c1-c1[nH]ncc1CC2 | 48.2 µM
17 | O=C(Nc1ccc(F)cc1F)c1csc(-c2ccccc2)n1 | 34.7 µM
18 | CCN(c1ccccc1)S(=O)(=O)c1ccc(C(=O)Nc2nc3ccc(F)cc3s2)cc1 | > 50 µM (inactive)
19 | O=C(NCc1ccccc1Cl)c1ccc2cn[nH]c2c1 | > 50 µM (inactive)
20 | CCc1noc(Cn2cnc3c4ccccc4n(CC(=O)NC4CCCCC4)c3c2=O)n1 | > 50 µM (inactive)
21 | O=C1N[C@@H](Cc2ccccc2)C(=O)N2[C@H]3Nc4ccccc4[C@@]3([C@]34C[C@H]5C(=O)N[C@@H](Cc6ccccc6)C(=O)N5[C@H]3Nc3ccccc34)C[C@@H]12 | 47.6 µM
22 | O=C(Nc1ccc2sccc2c1)c1ccc(F)cc1 | > 50 µM (inactive)
23 | O=C(NCc1ccc(F)cc1)C1CCN(c2cnc(N3CCCCC3)nc2)CC1 | > 50 µM (inactive)
24 | CC(C)OC(=O)c1cc2c(ccn2C)n1CC(=O)N1CCN(C(=O)c2ccco2)CC1 | > 50 µM (inactive)
25 | CCOc1ccc2[nH]c3c(=O)n(CCc4ccc(OC)cc4)cnc3c2c1 | 28.6 µM
26 | CCC(C)c1ccc(-c2csc(Cn3c(CN4CCN(C)CC4)nc4ccccc4c3=O)n2)cc1 (configuration not stated) | 31.8 µM

Other lines, results leading:

Row | IC50 | Compound
27 | 23.7 µM | N#Cc1ccccc1Cn1c(=O)n(CCCCC(=O)NCCc2ccccc2)c(=O)c2ccccc21
28 | 25.6 µM | CC1=CC(=O)C(C2=C(O)C(=O)C(C)=CC2=O)=C(O)C1=O
29 | 38.7 µM | O=C(Cn1cncc(C(=O)NC2CCCC2)c1=O)Nc1cccc(F)c1
30 | > 50 µM (inactive) | COc1ccc2nc(Nc3ncc4c(n3)CCCC4=O)nc(C)c2c1
31 | 3.22 µM | COC(=O)c1ccc2c(=O)n(CCCCCC(=O)NCc3cccc(Cl)c3)c(=O)[nH]c2c1
32 | > 50 µM (inactive) | CC(=O)Nc1ccc(O)c(-c2nc3cc(C)ccc3o2)c1
33 | > 50 µM (inactive) | Cc1ccc(Cl)cc1NC(=O)COC(=O)c1ccc2ccccc2n1
34 | > 50 µM (inactive) | O=C1/C(=C/c2cn(-c3ccccc3)nc2-c2ccc3c(c2)OCCO3)Cc2ccccc21
35 | > 50 µM (inactive) | CCOc1ccccc1C(=O)NCC(=O)OC(C(=O)c1c[nH]c2ccccc12)c1ccccc1 (configuration not stated)
36 | > 50 µM (inactive) | CCc1cc(C(=O)c2ccc(OC)cc2)c(NC(=O)CN2CCCCC2)s1
37 | > 50 µM (inactive) | COc1cccc(-n2c(=O)[nH]c3c(C(N)=O)nc(-c4ccc(OCc5ccccc5)cc4)nc32)c1
38 | > 50 µM (inactive) | COc1ccccc1-c1nc(Cn2nnc(C(=O)Nc3cc(C)cc(C)c3)c2N)c(C)o1
39 | > 50 µM (inactive) | CC1CCN(c2cc(-n3cnc(C(=O)N4CCCCC4)c3)ncn2)CC1
40 | > 50 µM (inactive) | O=C(COC(=O)c1ccc2ncsc2c1)Nc1ccccc1F
41 | > 50 µM (inactive) | O=C(NCc1ccc(F)cc1)C1CCCN(c2cnc3nccnc3c2)C1 (configuration not stated)
42 | > 50 µM (inactive) | CCOc1ccc2nc(NC(=O)C3CCN(S(=O)(=O)c4ccc5c(c4)CC(C)N5C(C)=O)CC3)sc2c1 (configuration not stated)
43 | > 50 µM (inactive) | Cc1cnc2nc3c(cc2c1)CN(CCc1ccc(Cl)cc1)CC3
44 | > 50 µM (inactive) | COc1cccc(NC(=O)C2CCN(C(=O)c3cc(-c4cccnc4)n[nH]3)CC2)c1
45 | 28.1 µM | COCCCNC(=O)c1ccc(Cn2c(=O)c3ccccc3n(CC(=O)Nc3ccc(OC)cc3)c2=O)cc1
46 | > 50 µM (inactive) | COc1cc(O)c2c(=O)c(-c3ccc(O)cc3)coc2c1
47 | > 50 µM (inactive) | Cc1cccc(C(=O)Nc2ccc3c(c2)nc(CSc2nccc(C)n2)n3C)c1
